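Following 48 hours of exposure in 96-well plates, responses at five concentrations were used to interpolate endpoints linearly. GI50 is the concentration that inhibits growth by half.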 Activity calls are given as the source filed them. Rule as the data show it: active = GI50 up to about 1.1 µM and inactive = higher.
Legend:
Experiment in all cases: NCI anticancer screen, dose series, 48 h
786-0 = test system: 786-0
A549 = test system: A549
ACHN = test system: ACHN
CCRF-CEM = test system: CCRF-CEM
DLD-1 = test system: DLD-1
DMS-273 = test system: DMS-273
EKVX = test system: EKVX
HCC 2998 = test system: HCC 2998
HCT-116 = test system: HCT-116
HCT-15 = test system: HCT-15
HL-60 = test system: HL-60
HOP-18 = test system: HOP-18
HOP-62 = test system: HOP-62
HOP-92 = test system: HOP-92
HT-29 = test system: HT-29
IGROV-1 = test system: IGROV-1
KM-20L2 = test system: KM-20L2
LOX IMVI = test system: LOX IMVI
LXFL 529 = test system: LXFL 529
M19-MEL = test system: M19-MEL
MOLT-4 = test system: MOLT-4
Malme-3M = test system: Malme-3M
NCI-H226 = test system: NCI-H226
NCI-H23 = test system: NCI-H23
NCI-H460 = test system: NCI-H460
OVCAR-3 = test system: OVCAR-3
OVCAR-5 = test system: OVCAR-5
OVCAR-8 = test system: OVCAR-8
RPMI-8226 = test system: RPMI-8226
RXF 393 = test system: RXF 393
SF-268 = test system: SF-268
SF-295 = test system: SF-295
SF-539 = test system: SF-539
SK-MEL-28 = test system: SK-MEL-28
SK-MEL-2 = test system: SK-MEL-2
SK-OV-3 = test system: SK-OV-3
SN12C = test system: SN12C
SNB-19 = test system: SNB-19
SNB-75 = test system: SNB-75
SNB-78 = test system: SNB-78
SR = test system: SR
SW-620 = test system: SW-620
TK-10 = test system: TK-10
U-251 = test system: U-251
UACC-257 = test system: UACC-257
UACC-62 = test system: UACC-62
UO-31 = test system: UO-31
XF498 = test system: XF498
A498 = test system: A498
DMS-114 = test system: DMS-114
K562 = test system: K562
KM12 = test system: KM12
M14 = test system: M14
NCI-H522 = test system: NCI-H522
OVCAR-4 = test system: OVCAR-4
SK-MEL-5 = test system: SK-MEL-5

Structure (SMILES): Cc1cc2c(C)nn(Cc3ccc(Cl)cc3Cl)c2c(C#N)c1C
- GI50 (786-0): > 100 µM (inactive)
- GI50 (A549): 86.3 µM (inactive)
- GI50 (ACHN): > 100 µM (inactive)
- GI50 (CCRF-CEM): > 100 µM (inactive)
- GI50 (DLD-1): > 100 µM (inactive)
- GI50 (DMS-273): > 100 µM (inactive)
- GI50 (EKVX): > 100 µM (inactive)
- GI50 (HCC 2998): > 100 µM (inactive)
- GI50 (HCT-116): 69.7 µM (inactive)
- GI50 (HCT-15): > 100 µM
- GI50 (HL-60): > 100 µM (inactive)
- GI50 (HOP-18): > 100 µM (inactive)
- GI50 (HOP-62): > 100 µM (inactive)
- GI50 (HOP-92): 35.9 µM (inactive)
- GI50 (HT-29): 78.5 µM (inactive)
- GI50 (IGROV-1): > 100 µM (inactive)
- GI50 (KM-20L2): > 100 µM (inactive)
- GI50 (LOX IMVI): > 100 µM (inactive)
- GI50 (LXFL 529): 82.4 µM (inactive)
- GI50 (M19-MEL): > 100 µM (inactive)
- GI50 (MOLT-4): > 100 µM (inactive)
- GI50 (Malme-3M): > 100 µM (inactive)
- GI50 (NCI-H226): > 100 µM (inactive)
- GI50 (NCI-H23): > 100 µM (inactive)
- GI50 (NCI-H460): 79.4 µM (inactive)
- GI50 (OVCAR-3): > 100 µM (inactive)
- GI50 (OVCAR-5): > 100 µM (inactive)
- GI50 (OVCAR-8): > 100 µM (inactive)
- GI50 (RPMI-8226): > 100 µM (inactive)
- GI50 (RXF 393): 67 µM (inactive)
- GI50 (SF-268): > 100 µM (inactive)
- GI50 (SF-295): 50.4 µM (inactive)
- GI50 (SF-539): > 100 µM (inactive)
- GI50 (SK-MEL-28): > 100 µM (inactive)
- GI50 (SK-MEL-2): > 100 µM (inactive)
- GI50 (SK-OV-3): > 100 µM (inactive)
- GI50 (SN12C): > 100 µM (inactive)
- GI50 (SNB-19): > 100 µM (inactive)
- GI50 (SNB-75): 89.9 µM (inactive)
- GI50 (SNB-78): > 100 µM (inactive)
- GI50 (SR): > 100 µM (inactive)
- GI50 (SW-620): > 100 µM (inactive)
- GI50 (TK-10): > 100 µM (inactive)
- GI50 (U-251): > 100 µM (inactive)
- GI50 (UACC-257): 37.8 µM (inactive)
- GI50 (UACC-62): > 100 µM (inactive)
- GI50 (UO-31): > 100 µM (inactive)
- GI50 (XF498): 29.1 µM (inactive)

Structure (SMILES): O=C(NN1C(=O)C(Cl)C1c1c(O)ccc2ccccc12)c1ccccc1O (stereo not given)
- GI50 (786-0): > 100 µM (inactive)
- GI50 (A498): 8.45 µM (inactive)
- GI50 (A549): > 100 µM (inactive)
- GI50 (ACHN): > 100 µM (inactive)
- GI50 (CCRF-CEM): > 100 µM (inactive)
- GI50 (DLD-1): > 100 µM (inactive)
- GI50 (DMS-114): > 100 µM (inactive)
- GI50 (DMS-273): > 100 µM (inactive)
- GI50 (HCT-116): > 100 µM (inactive)
- GI50 (HCT-15): > 100 µM
- GI50 (HL-60): > 100 µM (inactive)
- GI50 (HOP-18): > 100 µM (inactive)
- GI50 (HT-29): > 100 µM (inactive)
- GI50 (IGROV-1): > 100 µM (inactive)
- GI50 (K562): > 100 µM (inactive)
- GI50 (KM12): > 100 µM (inactive)
- GI50 (LOX IMVI): > 100 µM (inactive)
- GI50 (LXFL 529): > 100 µM (inactive)
- GI50 (M14): > 100 µM (inactive)
- GI50 (M19-MEL): > 100 µM (inactive)
- GI50 (MOLT-4): > 100 µM (inactive)
- GI50 (Malme-3M): > 100 µM (inactive)
- GI50 (NCI-H226): > 100 µM (inactive)
- GI50 (NCI-H23): > 100 µM (inactive)
- GI50 (NCI-H460): > 100 µM (inactive)
- GI50 (NCI-H522): > 100 µM (inactive)
- GI50 (OVCAR-3): > 100 µM (inactive)
- GI50 (OVCAR-4): > 100 µM (inactive)
- GI50 (OVCAR-8): > 100 µM (inactive)
- GI50 (RXF 393): > 100 µM (inactive)
- GI50 (SF-268): > 100 µM (inactive)
- GI50 (SF-295): > 100 µM (inactive)
- GI50 (SF-539): > 100 µM (inactive)
- GI50 (SK-MEL-28): > 100 µM (inactive)
- GI50 (SK-MEL-2): > 100 µM (inactive)
- GI50 (SK-MEL-5): > 100 µM (inactive)
- GI50 (SK-OV-3): > 100 µM (inactive)
- GI50 (SN12C): > 100 µM (inactive)
- GI50 (SNB-19): > 100 µM (inactive)
- GI50 (SNB-75): > 100 µM (inactive)
- GI50 (SNB-78): > 100 µM (inactive)
- GI50 (TK-10): > 100 µM (inactive)
- GI50 (U-251): > 100 µM (inactive)
- GI50 (UACC-257): > 100 µM (inactive)
- GI50 (UACC-62): > 100 µM (inactive)
- GI50 (UO-31): > 100 µM (inactive)
- GI50 (XF498): > 100 µM (inactive)

— ChEMBL document CHEMBL1201862, “PubChem BioAssay data set” (2004)
